Experimental data as given in patent EP0908457B1, “3-(1,2-benzisothiazol- and isoxazol-5-Y1)-2,4(1H,3H)-pyrimidinedione or thione and 3-(1,2-benzisothiazol- and isoxazol-5-y1)-4(3H)-pyrimidinone or thione herbicidal agents” (BASF AKTIENGESELLSCHAFT, priority 1997, dated 1999).

Experiments:
Format in all cases: in vivo
[1] = tested on: Cyperus serotinus, Rottb.; test: Preemergence weed control under flooded paddy conditions, CYPSE (Flatsedge); conditions: for CYPSE herbicidal rating / herbicidal effect rating, CYPSE: rated three to four weeks after treatment; for CYPSE: herbicidal effect rating 0-9, three to four weeks after treatment; on herbicidal effect rating, CYPSE: meaning of each grade not given here
[2] = tested on: Monochoria vaginalis, Presl.; test: Preemergence weed control under flooded paddy conditions, MOOVA (Monochoria); conditions: flooded paddy; for MOOVA herbicidal rating / herbicidal effect rating, MOOVA: rated three to four weeks after treatment; for MOOVA: herbicidal effect rating 0-9, three to four weeks after treatment; on herbicidal effect rating, MOOVA: meaning of each grade not given here
[3] = tested on: Echinochloa oryzoides (Ard.) Fritsch.; test: Preemergence weed control under flooded paddy conditions, ECHORC (Watergrass (Calif.)); conditions: flooded paddy; for ECHORC herbicidal rating / herbicidal effect rating, ECHORC: rated three to four weeks after treatment; for ECHORC: herbicidal effect rating 0-9, three to four weeks after treatment; on herbicidal effect rating, ECHORC: meaning of each grade not given here
Cyperus iria = test: Preemergence weed control under flooded paddy conditions, CYPIR (Rice Flatsedge); conditions: flooded paddy; for CYPIR herbicidal rating / herbicidal effect rating, CYPIR: rated three to four weeks after treatment; for CYPIR: herbicidal effect rating 0-9, three to four weeks after treatment; on herbicidal effect rating, CYPIR: meaning of each grade not given here
Sagittaria pygmaea, L. = test: Preemergence weed control under flooded paddy conditions, SAGPY (Arrowhead (Pygmaea)); conditions: flooded paddy; for SAGPY herbicidal rating / herbicidal effect rating, SAGPY: rated three to four weeks after treatment; for SAGPY: herbicidal effect rating 0-9, three to four weeks after treatment; on herbicidal effect rating, SAGPY: meaning of each grade not given here
[4] = Rate 0.0320 kg/ha, preemergence
[5] = Rate 0.0620 kg/ha, preemergence
[6] = Rate 0.1250 kg/ha, preemergence
[7] = Rate 0.2500 kg/ha, preemergence
[8] = 0.0313 kg/ha, preemergence weeds
[9] = 0.0625 kg/ha, preemergence weeds
[10] = 0.1250 kg/ha, preemergence weeds
[11] = 0.2500 kg/ha, preemergence weeds
[12] = 0.0320 kg/ha, preemergence weeds
[13] = 0.0620 kg/ha, preemergence weeds

SMILES: Cn1c(C(F)(F)F)cc(=O)n(-c2ccc3snc(COC(=O)c4ccc([N+](=O)[O-])o4)c3c2)c1=O [Example 476, 2,4(1H,3H)-Pyrimidinedione, 3-[3-(hydroxymethyl)-1,2-benzisothiazol-5-yl]-1-methyl-6-(trifluoromethyl)-, 5-nitro-2-furoate (ester)]
- CYPSE herbicidal rating ([1]; 0.0320 kg/ha, preemergence): 0.0
- CYPSE herbicidal rating ([1]; 0.1250 kg/ha, preemergence): 3.0
- CYPSE herbicidal rating ([1]; 0.2500 kg/ha, preemergence): 6.0
- MOOVA herbicidal rating ([2]; 0.0320 kg/ha, preemergence): 5.0
- MOOVA herbicidal rating ([2]; 0.0620 kg/ha, preemergence): 6.0
- MOOVA herbicidal rating ([2]; 0.1250 kg/ha, preemergence): 6.0
- MOOVA herbicidal rating ([2]; 0.2500 kg/ha, preemergence): 9.0
- ECHORC herbicidal rating ([3]; 0.0320 kg/ha, preemergence): 0.0
- ECHORC herbicidal rating ([3]; 0.0620 kg/ha, preemergence): 2.0
- ECHORC herbicidal rating ([3]; 0.1250 kg/ha, preemergence): 2.0
- ECHORC herbicidal rating ([3]; 0.2500 kg/ha, preemergence): 3.0
- CYPIR herbicidal rating (Cyperus iria; 0.0320 kg/ha, preemergence): 4.0
- CYPIR herbicidal rating (Cyperus iria; 0.0620 kg/ha, preemergence): 4.0
- CYPIR herbicidal rating (Cyperus iria; 0.1250 kg/ha, preemergence): 9.0
- CYPIR herbicidal rating (Cyperus iria; 0.2500 kg/ha, preemergence): 9.0
- SAGPY herbicidal rating (Sagittaria pygmaea, L.; 0.0320 kg/ha, preemergence): 0.0
- SAGPY herbicidal rating (Sagittaria pygmaea, L.; 0.0620 kg/ha, preemergence): 2.0
- SAGPY herbicidal rating (Sagittaria pygmaea, L.; 0.1250 kg/ha, preemergence): 4.0
- SAGPY herbicidal rating (Sagittaria pygmaea, L.; 0.2500 kg/ha, preemergence): 5.0

SMILES: Cn1c(C(F)(F)F)cc(=O)n(-c2ccc3snc(C(C#N)=Cc4ccccc4C#N)c3c2)c1=O [Example 606, 1,2-Benzisothiazole-3-acetonitrile, alpha-(o-cyanobenzylidene)-5-[3,6-dihydro-3-methyl-2,6-dioxo-4-(trifluoromethyl)-1(2H)-pyrimidinyl]-, (E)- and (Z)-]
- herbicidal effect rating, CYPSE [1, 4]: 0.0
- herbicidal effect rating, CYPSE [1, 5]: 2.0
- herbicidal effect rating, CYPSE [1, 6]: 2.0
- herbicidal effect rating, CYPSE [1, 7]: 2.0
- herbicidal effect rating, MOOVA [2, 4]: 6.0
- herbicidal effect rating, MOOVA [2, 5]: 7.0
- herbicidal effect rating, MOOVA [2, 6]: 7.0
- herbicidal effect rating, MOOVA [2, 7]: 9.0
- herbicidal effect rating, ECHORC [3, 4]: 5.0
- herbicidal effect rating, ECHORC [3, 5]: 5.0
- herbicidal effect rating, ECHORC [3, 6]: 5.0
- herbicidal effect rating, ECHORC [3, 7]: 6.0
- herbicidal effect rating, CYPIR (Cyperus iria; [4]): 4.0
- herbicidal effect rating, CYPIR (Cyperus iria; [5]): 6.0
- herbicidal effect rating, CYPIR (Cyperus iria; [6]): 6.0
- herbicidal effect rating, CYPIR (Cyperus iria; [7]): 9.0
- herbicidal effect rating, SAGPY (Sagittaria pygmaea, L.; [4]): 0.0
- herbicidal effect rating, SAGPY (Sagittaria pygmaea, L.; [6]): 3.0
- herbicidal effect rating, SAGPY (Sagittaria pygmaea, L.; [7]): 4.0

SMILES: Cc1ccc(OCC(=O)OC(C)C(=O)O)c(-c2nsc3ccc(-n4c(=O)cc(C(F)(F)F)n(C)c4=O)cc23)c1 (racemic) [Example 190, 2-{{2-{5-[3,6-Dihydro-3-methyl-2,6-dioxo-4-(trifluoromethyl)-1(2H)-pyrimidinyl]-1,2-benzisothiazol-3-yl}-p-tolyl}oxy}acetoxy}-propionic acid, DL-]
- herbicidal effect rating, CYPSE [1, 8]: 0.0
- herbicidal effect rating, CYPSE [1, 9]: 0.0
- herbicidal effect rating, CYPSE [1, 10]: 0.0
- herbicidal effect rating, CYPSE [1, 11]: 0.0
- herbicidal effect rating, MOOVA [2, 8]: 9.0
- herbicidal effect rating, MOOVA [2, 9]: 9.0
- herbicidal effect rating, MOOVA [2, 10]: 9.0
- herbicidal effect rating, MOOVA [2, 11]: 9.0
- herbicidal effect rating, ECHORC [3, 8]: 2.0
- herbicidal effect rating, ECHORC [3, 9]: 4.0
- herbicidal effect rating, ECHORC [3, 10]: 7.0
- herbicidal effect rating, ECHORC [3, 11]: 8.0
- herbicidal effect rating, CYPIR (Cyperus iria; [8]): 0.0
- herbicidal effect rating, CYPIR (Cyperus iria; [9]): 0.0
- herbicidal effect rating, CYPIR (Cyperus iria; [10]): 2.0
- herbicidal effect rating, CYPIR (Cyperus iria; [11]): 4.0
- herbicidal effect rating, SAGPY (Sagittaria pygmaea, L.; [8]): 0.0
- herbicidal effect rating, SAGPY (Sagittaria pygmaea, L.; [9]): 0.0
- herbicidal effect rating, SAGPY (Sagittaria pygmaea, L.; [10]): 0.0
- herbicidal effect rating, SAGPY (Sagittaria pygmaea, L.; [11]): 0.0

SMILES: COC(=O)COc1cc(C)c(I)cc1-c1nsc2ccc(-n3c(=O)cc(C(F)(F)F)n(C)c3=O)cc12 [Example 469, Acetic acid, {{6-{5-[3,6-dihydro-3-methyl-2,6-dioxo-4-(trifluoromethyl)-1(2H)-pyrimidinyl]-1,2-benzisothiazol-3-yl}-4-iodo-m-tolyl}oxy}-, methyl ester]
- CYPSE herbicidal rating ([1]; 0.0320 kg/ha, preemergence): 0.0
- CYPSE herbicidal rating ([1]; 0.0620 kg/ha, preemergence): 4.5
- CYPSE herbicidal rating ([1]; 0.1250 kg/ha, preemergence): 9.0
- CYPSE herbicidal rating ([1]; 0.2500 kg/ha, preemergence): 6.0
- MOOVA herbicidal rating ([2]; 0.0320 kg/ha, preemergence): 2.0
- MOOVA herbicidal rating ([2]; 0.0620 kg/ha, preemergence): 4.5
- MOOVA herbicidal rating ([2]; 0.1250 kg/ha, preemergence): 5.0
- MOOVA herbicidal rating ([2]; 0.2500 kg/ha, preemergence): 8.0
- ECHORC herbicidal rating ([3]; 0.0320 kg/ha, preemergence): 7.0
- ECHORC herbicidal rating ([3]; 0.0620 kg/ha, preemergence): 9.0
- ECHORC herbicidal rating ([3]; 0.1250 kg/ha, preemergence): 9.0
- ECHORC herbicidal rating ([3]; 0.2500 kg/ha, preemergence): 9.0
- CYPIR herbicidal rating (Cyperus iria; 0.0320 kg/ha, preemergence): 0.0
- CYPIR herbicidal rating (Cyperus iria; 0.0620 kg/ha, preemergence): 1.5
- CYPIR herbicidal rating (Cyperus iria; 0.1250 kg/ha, preemergence): 6.5
- CYPIR herbicidal rating (Cyperus iria; 0.2500 kg/ha, preemergence): 7.0
- SAGPY herbicidal rating (Sagittaria pygmaea, L.; 0.0320 kg/ha, preemergence): 0.0
- SAGPY herbicidal rating (Sagittaria pygmaea, L.; 0.0620 kg/ha, preemergence): 1.5
- SAGPY herbicidal rating (Sagittaria pygmaea, L.; 0.1250 kg/ha, preemergence): 2.5
- SAGPY herbicidal rating (Sagittaria pygmaea, L.; 0.2500 kg/ha, preemergence): 3.0

SMILES: Cn1c(C(F)(F)F)cc(=O)n(-c2ccc3snc(CSc4ccccc4)c3c2)c1=O [Example 392, 2,4(1H,3H)-Pyrimidinedione, 1-methyl-3-{3-[(phenylthio)methyl]-1,2-benzisothiazol-5-yl}-6-(trifluoromethyl)-]
- herbicidal effect rating, CYPSE [1, 4]: 0.0
- herbicidal effect rating, CYPSE [1, 5]: 0.0
- herbicidal effect rating, CYPSE [1, 6]: 0.0
- herbicidal effect rating, CYPSE [1, 7]: 0.0
- herbicidal effect rating, MOOVA [2, 4]: 6.0
- herbicidal effect rating, MOOVA [2, 5]: 7.0
- herbicidal effect rating, MOOVA [2, 6]: 7.0
- herbicidal effect rating, MOOVA [2, 7]: 9.0
- herbicidal effect rating, ECHORC [3, 4]: 5.0
- herbicidal effect rating, ECHORC [3, 5]: 7.0
- herbicidal effect rating, ECHORC [3, 6]: 9.0
- herbicidal effect rating, ECHORC [3, 7]: 9.0
- herbicidal effect rating, CYPIR (Cyperus iria; [4]): 0.0
- herbicidal effect rating, CYPIR (Cyperus iria; [5]): 0.0
- herbicidal effect rating, CYPIR (Cyperus iria; [6]): 3.0
- herbicidal effect rating, CYPIR (Cyperus iria; [7]): 7.0
- herbicidal effect rating, SAGPY (Sagittaria pygmaea, L.; [4]): 0.0
- herbicidal effect rating, SAGPY (Sagittaria pygmaea, L.; [5]): 0.0
- herbicidal effect rating, SAGPY (Sagittaria pygmaea, L.; [6]): 0.0
- herbicidal effect rating, SAGPY (Sagittaria pygmaea, L.; [7]): 0.0

SMILES: COc1ccc(OC)c(CC(=O)OCc2nsc3ccc(-n4c(=O)cc(C(F)(F)F)n(C)c4=O)cc23)c1 [Example 503, 2,4(1H,3H)-Pyrimidinedione, 3-[3-(hydroxymethyl)-1,2-benzisothiazol-5-yl]-1-methyl-6-(trifluoromethyl)-, (2,5-dimethoxyphenyl)acetate (ester)]
- CYPSE herbicidal rating ([1]; 0.1250 kg/ha, preemergence): 5.0
- CYPSE herbicidal rating ([1]; 0.2500 kg/ha, preemergence): 6.0
- MOOVA herbicidal rating ([2]; 0.0320 kg/ha, preemergence): 7.0
- MOOVA herbicidal rating ([2]; 0.0620 kg/ha, preemergence): 9.0
- MOOVA herbicidal rating ([2]; 0.1250 kg/ha, preemergence): 9.0
- MOOVA herbicidal rating ([2]; 0.2500 kg/ha, preemergence): 9.0
- ECHORC herbicidal rating ([3]; 0.0320 kg/ha, preemergence): 2.0
- ECHORC herbicidal rating ([3]; 0.0620 kg/ha, preemergence): 4.0
- ECHORC herbicidal rating ([3]; 0.1250 kg/ha, preemergence): 6.0
- ECHORC herbicidal rating ([3]; 0.2500 kg/ha, preemergence): 6.0
- CYPIR herbicidal rating (Cyperus iria; 0.0320 kg/ha, preemergence): 0.0
- CYPIR herbicidal rating (Cyperus iria; 0.0620 kg/ha, preemergence): 6.0
- CYPIR herbicidal rating (Cyperus iria; 0.1250 kg/ha, preemergence): 9.0
- CYPIR herbicidal rating (Cyperus iria; 0.2500 kg/ha, preemergence): 7.0
- SAGPY herbicidal rating (Sagittaria pygmaea, L.; 0.0320 kg/ha, preemergence): 0.0
- SAGPY herbicidal rating (Sagittaria pygmaea, L.; 0.0620 kg/ha, preemergence): 3.0
- SAGPY herbicidal rating (Sagittaria pygmaea, L.; 0.1250 kg/ha, preemergence): 4.0
- SAGPY herbicidal rating (Sagittaria pygmaea, L.; 0.2500 kg/ha, preemergence): 8.0

SMILES: Cn1c(C(F)(F)F)cc(=O)n(-c2ccc3snc(C(SCCCO)SCCCO)c3c2)c1=O [Example 424, 1,2-Benzisothiazole-3-carboxaldehyde, 5-[3,6-dihydro-3-methyl-2,6-dioxo-4-(trifluoromethyl)-1(2H)-pyrimidinyl]-, 3-[bis(3-hydroxypropyl)dithioacetal]]
- CYPSE [1, 10]: 3.0
- CYPSE [1, 11]: 3.0
- MOOVA [2, 12]: 7.0
- MOOVA [2, 13]: 9.0
- MOOVA [2, 10]: 9.0
- MOOVA [2, 11]: 9.0
- ECHORC [3, 12]: 0.0
- ECHORC [3, 13]: 0.0
- ECHORC [3, 10]: 3.0
- ECHORC [3, 11]: 3.0
- CYPIR (Cyperus iria; [12]): 4.0
- CYPIR (Cyperus iria; [13]): 5.0
- CYPIR (Cyperus iria; [10]): 6.0
- CYPIR (Cyperus iria; [11]): 7.0
- SAGPY (Sagittaria pygmaea, L.; [12]): 0.0
- SAGPY (Sagittaria pygmaea, L.; [13]): 0.0
- SAGPY (Sagittaria pygmaea, L.; [10]): 0.0
- SAGPY (Sagittaria pygmaea, L.; [11]): 0.0

SMILES: CCCCS(=O)(=O)OC(C)c1nsc2ccc(-n3c(=O)cc(C(F)(F)F)n(C)c3=O)cc12 (stereo not drawn) [Example 414, 2,4(1H,3H)-Pyrimidinedione, 3-[3-(1-hydroxyethyl)-1,2-benzisothiazol-5-yl]-1-methyl-6-(trifluoromethyl)-, butanesulfonate (ester)]
- CYPSE [1, 12]: 0.0
- CYPSE [1, 11]: 9.0
- MOOVA [2, 13]: 7.0
- MOOVA [2, 10]: 7.0
- MOOVA [2, 11]: 7.0
- ECHORC [3, 12]: 0.0
- ECHORC [3, 13]: 0.0
- ECHORC [3, 10]: 2.0
- ECHORC [3, 11]: 7.0
- CYPIR (Cyperus iria; [12]): 0.0
- CYPIR (Cyperus iria; [13]): 2.0
- CYPIR (Cyperus iria; [10]): 6.0
- CYPIR (Cyperus iria; [11]): 9.0
